This is an account of results in patent publication US8993756B2 (Merck Sharp & Dohme Corp., priority 2011, dated 2015).

SMILES strings stand for the structures.

The target of one assay is JAK3 (Homo sapiens (Human), UniProt P52333). Briefly: Jak Biochemical HTRF Assay (JAK3). The settings on record: recombinant GST-tagged catalytic domain, [ATP] 2.9 μM. For orientation: TR-FRET usually uses a lanthanide donor and a delayed reading to cut background.
The next assay concerns the target JAK2 (Homo sapiens (Human), UniProt O60674). Put plainly: Jak Biochemical HTRF Assay (JAK2). The settings on record: recombinant GST-tagged catalytic domain, [ATP] 8.5 μM.

Chain of JAK3 (P52333 822-1111): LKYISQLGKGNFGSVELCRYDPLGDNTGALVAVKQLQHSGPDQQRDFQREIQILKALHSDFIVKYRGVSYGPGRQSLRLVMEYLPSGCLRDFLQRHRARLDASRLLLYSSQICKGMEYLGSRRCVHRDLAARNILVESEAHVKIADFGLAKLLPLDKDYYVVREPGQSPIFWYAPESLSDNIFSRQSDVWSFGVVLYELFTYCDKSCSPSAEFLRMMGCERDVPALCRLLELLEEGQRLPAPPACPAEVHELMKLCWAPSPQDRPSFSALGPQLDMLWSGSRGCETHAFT
Chain of JAK2 (O60674 849-1124): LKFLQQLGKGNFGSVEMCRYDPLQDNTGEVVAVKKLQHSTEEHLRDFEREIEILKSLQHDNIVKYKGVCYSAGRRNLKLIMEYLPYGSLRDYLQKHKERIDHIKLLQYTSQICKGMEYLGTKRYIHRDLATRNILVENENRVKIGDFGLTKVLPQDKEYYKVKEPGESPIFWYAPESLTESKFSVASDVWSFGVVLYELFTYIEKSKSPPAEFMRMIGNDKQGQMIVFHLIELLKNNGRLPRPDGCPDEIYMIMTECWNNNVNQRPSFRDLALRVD

What is called IC50 is the concentration at which inhibition is half-maximal. As for `C=C(C)C(=O)Nc1cccc(-c2ncnc3[nH]cc(-c4cccc(F)c4Cl)c23)c1` [Example 20-5, N-{3-[5-(2-chloro-3-fluorophenyl)-7H-pyrrolo[2,3-d]pyrimidin-4-yl]phenyl}-2-methylprop-2-enamide], the results for the IC50 at JAK3 and on JAK2 were 1.5 nM and greater than 1500 nM, respectively.

Turning to `C=C(C)C(=O)Nc1cccc(-c2ncnc3[nH]cc(-c4ccccc4C)c23)c1` [Example 20-6, 2-methyl-N-{3-[5-(2-methylphenyl)-7H-pyrrolo[2,3-d]pyrimidin-4-yl]phenyll}prop-2-enamide], the IC50 on JAK3 was 5.2 nM; at JAK2, greater than 1500 nM.

As for `C=C(C)C(=O)Nc1cccc(-c2ncnc3[nH]cc(-c4ccc(C)cc4)c23)c1` [Example 20-7, 2-methyl-N-{3-[5-(4-methylphenyl)-7H-pyrrolo[2,3-d]pyrimidin-4-yl]phenyl}prop-2-enamide], the IC50 on JAK3 was 5.4 nM; at JAK2, greater than 1500 nM.

For the molecule `C=C(C)C(=O)Nc1cccc(-c2ncnc3[nH]cc(-c4c(C)cc(C)cc4C)c23)c1` [Example 20-8, 2-methyl-N-{3-[5-(2,4,6-trimethylphenyl)-7H-pyrrolo[2,3-d]pyrimidin-4-yl]phenyll}prop-2-enamide], the IC50 at JAK3 (given as range class) was 10 to 500 nM; on JAK2 (given as range class) it was greater than 500 nM.

`C=CC(=O)Nc1cccc(-c2ncnc3[nH]cc(-c4ccccc4)c23)c1` [Example 20-9, N-[3-(5-phenyl-7H-pyrrolo[2,3-d]pyrimidin-4-yl)phenyl]prop-2-enamide]: the results for the IC50 at JAK3 and on JAK2 were 0.016 nM and greater than 1500 nM, respectively.

Regarding `C=C(C)C(=O)Nc1cccc(-c2ncnc3[nH]cc(-c4ccccn4)c23)c1` [Example 21-1, N-(3-(5-(Pyridin-2-yl)-7H-pyrrolo[2,3-d]pyrimidin-4-yl)phenyl)methacrylamide], the IC50 at JAK3 (given as range class) is 10 to 500 nM; on JAK2 (given as range class), greater than 500 nM.

For the molecule `C=C(C)C(=O)Nc1cccc(-c2ncnc3[nH]cc(-c4cnc[nH]4)c23)c1` [Example 21-2, N-(3-(5-(1H-imidazol-5-yl)-7H-pyrrolo[2,3-d]pyrimidin-4-yl)phenyl)methacrylamide], the IC50 at JAK3 was 7.5 nM; at JAK2, greater than 1500 nM.

Regarding `C=C(C)C(=O)Nc1cccc(-c2ncnc3[nH]cc(-c4ccncc4)c23)c1` [Example 21-3, N-(3-(5-(pyridin-4-yl)-7H-pyrrolo[2,3-d]pyrimidin-4-yl)phenyl)methacrylamide], the IC50 is 10 to 500 nM on JAK3 (given as range class) and greater than 500 nM on JAK2 (given as range class).

With `C=C(C)C(=O)Nc1cccc(-c2ncnc3[nH]cc(-c4cccnc4)c23)c1` [Example 21-4, N-(3-(5-(pyridin-3-yl)-7H-pyrrolo[2,3-d]pyrimidin-4-yl)phenyl)methacrylamide], the figures for the IC50 at JAK3 and on JAK2 were 9.7 nM and greater than 1500 nM, respectively.

Consider `C=C(C)C(=O)Nc1cccc(-c2ncnc3[nH]cc(C4=CCOCC4)c23)c1` [Example 21-5, N-(3-(5-(3,6-dihydro-2H-pyran-4-yl)-7H-pyrrolo[2,3-d]pyrimidin-4-yl)phenyl)methacrylamide], for which the IC50 at JAK3 is 5 nM; on JAK2 it was greater than 1500 nM.

For `C=C(C)C(=O)Nc1cccc(-c2ncnc3[nH]cc(-c4cnc(C)s4)c23)c1` [Example 21-6, N-(3-(5-(2-methylthiazol-5-yl)-7H-pyrrolo[2,3-d]pyrimidin-4-yl)phenyl)methacrylamide], the IC50 at JAK3 is 10.3 nM; on JAK2 it was greater than 1500 nM.

Take `C=C(C)C(=O)Nc1cccc(-c2ncnc3[nH]cc(-c4cncs4)c23)c1` [Example 21-7, N-(3-(5-(thiazol-5-yl)-7H-pyrrolo[2,3-d]pyrimidin-4-yl)phenyl)methacrylamide]: the IC50 on JAK3 was 1.8 nM; at JAK2 it was greater than 500 nM.

As for `C=C(C)C(=O)Nc1cccc(-c2ncnc3[nH]cc(-c4ncco4)c23)c1` [Example 22, N-(3-(5-(Oxazol-2-yl)-7H-pyrrolo[2,3-d]pyrimidin-4-yl)phenyl)methacrylamide], the concentration for half-maximal inhibition (IC50) on JAK3 was 8 nM; on JAK2, greater than 1500 nM.

In the case of `C=C(C)C(=O)Nc1cccc(-c2ncnc3[nH]cc(C4CCOCC4)c23)c1` [Example 23, N-(3-(5-(Tetrahydro-2H-pyran-4-yl)-7H-pyrrolo[2,3-d]pyrimidin-4-yl)phenyl)methacrylamide], the IC50 at JAK3 is 8.3 nM; at JAK2 it was greater than 1500 nM.

For `C=C(C)C(=O)N(C)c1cccc(-c2ncnc3[nH]cc(C4CCOCC4)c23)c1` [Example 24, N-Methyl-N-(3-(5-(tetrahydro-2H-pyran-4-yl)-7H-pyrrolo[2,3-d]pyrimidin-4-yl)phenyl)methacrylamide], the half-maximal inhibitory concentration (IC50) on JAK3 (given as range class) and on JAK2 (given as range class) was greater than 500 nM in each case.

Regarding `C=C(C)C(=O)Nc1cccc(-c2ncnc3[nH]cc(C4CCCO4)c23)c1` (stereo not drawn) [Example 25, N-(3-(5-(Tetrahydrofuran-2-yl)-7H-pyrrolo[2,3-d]pyrimidin-4-yl)phenyl)methacrylamide], the IC50 on JAK3 (given as range class) was 10 to 500 nM; on JAK2 (given as range class), greater than 500 nM.

For `C=C(C)C(=O)Nc1cccc(-c2ncnc3[nH]cc(-c4nnc(C)o4)c23)c1` [Example 26, N-(3-(5-(5-Methyl-1,3,4-oxadiazol-2-yl)-7H-pyrrolo[2,3-d]pyrimidin-4-yl)phenyl)methacrylamide], the values for the IC50 on JAK3 and on JAK2 were 2.5 nM and greater than 1500 nM, respectively.

For `C=C(C)C(=O)Nc1cccc(-c2ncnc3[nH]cc(-c4nnc(C)s4)c23)c1` [Example 27, N-(3-(5-(5-Methyl-1,3,4-thiadiazol-2-yl)-7H-pyrrolo[2,3-d]pyrimidin-4-yl)phenyl)methacrylamide], the IC50 on JAK3 (given as range class) is 10 to 500 nM; on JAK2 (given as range class), greater than 500 nM.

On to `C=C(C)C(=O)Nc1cccc(-c2ncnc3[nH]cc(C4=NCC(C)O4)c23)c1` (stereo not drawn) [Example 28, N-(3-(5-(5-Methyl-4,5-dihydrooxazol-2-yl)-7H-pyrrolo[2,3-d]pyrimidin-4-yl)phenyl)methacrylamide], for which the IC50 at JAK3 (given as range class) is 10 to 500 nM; at JAK2 (given as range class), greater than 500 nM.

Turning to `C=C(C)C(=O)Nc1cccc(-c2ncnc3[nH]cc(-c4nc(C)co4)c23)c1` [Example 29, N-(3-(5-(4-Methyloxazol-2-yl)-7H-pyrrolo[2,3-d]pyrimidin-4-yl)phenyl)methacrylamide], the figures for the IC50 at JAK3 (given as range class) and on JAK2 (given as range class) were 10 to 500 nM and greater than 500 nM, respectively.

In the case of `C=C(C)C(=O)Nc1cccc(-c2ncnc3[nH]cc(-c4cnco4)c23)c1` [Example 30, N-(3-(5-(Oxazol-5-yl)-7H-pyrrolo[2,3-d]pyrimidin-4-yl)phenyl)methacrylamide], the values for the IC50 at JAK3 and at JAK2 were 5 nM and greater than 1500 nM, respectively.

As for `C=C(C)C(=O)Nc1cccc(-c2ncnc3[nH]cc(-c4nccs4)c23)c1` [Example 31, N-(3-(5-(Thiazol-2-yl)-7H-pyrrolo[2,3-d]pyrimidin-4-yl)phenyl)methacrylamide], the IC50 on JAK3 (given as range class) is 10 to 500 nM; at JAK2 (given as range class), greater than 500 nM.

On to `COc1ncccc1-c1c[nH]c2ncnc(-c3ccccc3)c12` [Example 32-1, 5-(2-Methoxypyridin-3-yl)-4-phenyl-7H-pyrrolo[2,3-d]pyrimidine], for which the IC50 on JAK3 (given as range class) and on JAK2 (given as range class) was 10 to 500 nM in each case.

As for `COc1cccc(-c2c[nH]c3ncnc(-c4ccccc4)c23)c1` [Example 32-3, 5-(3-methoxyphenyl)-4-phenyl-7H-pyrrolo[2,3-d]pyrimidine], the IC50 at JAK3 was determined as 3.1 nM; on JAK2 it was 93 nM.

Turning to `c1ccc(Oc2cccc(-c3c[nH]c4ncnc(-c5ccccc5)c34)c2)cc1` [Example 32-4, 5-(3-phenoxyphenyl)-4-phenyl-7H-pyrrolo[2,3-d]pyrimidine], the IC50 was 10 to 500 nM at JAK3 (given as range class) and greater than 500 nM on JAK2 (given as range class).

As to `c1ccc(COc2cccc(-c3c[nH]c4ncnc(-c5ccccc5)c34)c2)cc1` [Example 32-5, 5-[3-(benzyloxy)phenyl]-4-phenyl-7H-pyrrolo[2,3-d]pyrimidine], the IC50 at JAK3 (given as range class) is 10 to 500 nM; at JAK2 (given as range class) it was greater than 500 nM.

Consider `c1ccc(Oc2ccccc2-c2c[nH]c3ncnc(-c4ccccc4)c23)cc1` [Example 32-6, 5-(2-phenoxyphenyl)-4-phenyl-7H-pyrrolo[2,3-d]pyrimidine], for which the results for the IC50 on JAK3 (given as range class) and at JAK2 (given as range class) were 10 to 500 nM and greater than 500 nM, respectively.

Consider `COc1ccccc1-c1c[nH]c2ncnc(-c3ccccc3)c12` [Example 33-1, 5-(2-Methoxyphenyl)-4-phenyl-7H-pyrrolo[2,3-d]pyrimidine], for which the values for the IC50 on JAK3 and on JAK2 were 3.4 nM and 183 nM, respectively.

Regarding `COc1ccccc1-c1c[nH]c2ncnc(-c3ccc4cn(C)nc4c3)c12` [Example 33-2, 5-(2-methoxyphenyl)-4-(2-methyl-2H-indazol-6-yl)-7H-pyrrolo[2,3-d]pyrimidine], the IC50 on JAK3 is 6.9 nM; on JAK2, greater than 1500 nM.

On to `COc1ccc(F)cc1-c1c[nH]c2ncnc(-c3ccccc3)c12` [Example 33-3, 5-(5-fluoro-2-methoxyphenyl)-4-phenyl-7H-pyrrolo[2,3-d]pyrimidine], for which the figures for the IC50 at JAK3 and at JAK2 were 1.4 nM and 71 nM, respectively.

As for `COc1cccc(-c2ncnc3[nH]cc(-c4ccccc4OC)c23)c1` [Example 33-4, 5-(2-methoxphenyl)-4-(3-methoxyphenyl)-7H-pyrrolo[2,3-d]pyrimidine], the IC50 on JAK3 (given as range class) and on JAK2 (given as range class) was 10 to 500 nM in each case.

Consider `COc1ccccc1-c1c[nH]c2ncnc(-c3cccc(C(=O)N(C)C)c3)c12` [Example 33-5, 3-[5-(2-methoxyphenyl)-7H-pyrrolo[2,3-d]pyrimidin-4-yl]-N,N-dimethylbenzamide], for which the IC50 on JAK3 (given as range class) was 10 to 500 nM; at JAK2 (given as range class), greater than 500 nM.

For the molecule `COc1ccccc1-c1c[nH]c2ncnc(-c3cn[nH]c3)c12` [Example 33-6, 5-(2-methoxyphenyl)-4-(1H-pyrazol-4-yl)-7H-pyrrolo[2,3-d]pyrimidine], the IC50 on JAK3 (given as range class) and at JAK2 (given as range class) was 10 to 500 nM in each case.
